# In publication PMC5573764, “Enzymatic characterization of a recombinant carbonyl reductase from Acetobacter sp. CCTCC M209061” (Bioresources and Bioprocessing, 2017):
# Assays:
# Format in all cases: biochemical, Acetobacter sp. CCTCC M209061
# [1] = molecular target: T1, AcCR (recombinant carbonyl reductase; GAcCR) (Acetobacter sp., UniProt A0A2S1GUX7); experiment: NADH absorbance at […] nm, initial rates; conditions: pH 6.5, 35 °C (optimum conditions), GST-tagged enzyme
# T1 construct: N-terminal GST fusion from pGEX-2T, tag kept, about 53 kDa on SDS-PAGE; E. coli BL21(DE3)pLysS
# [2] = molecular target: T1, AcCR (recombinant carbonyl reductase; GAcCR); experiment: NADH formation at […] nm, initial rates; conditions: 45 °C, optimum conditions (pH 8.0 in assay method, optimum 8.5), GST-tagged enzyme
# [3] = molecular target: T1, AcCR (recombinant carbonyl reductase; GAcCR); experiment: NADPH formation at […] nm, initial rates; conditions: oxidation of isopropanol; 45 °C; optimum conditions (pH 8.0 in assay method); GST-tagged enzyme
# T1 sequence (A0A2S1GUX7 1-253): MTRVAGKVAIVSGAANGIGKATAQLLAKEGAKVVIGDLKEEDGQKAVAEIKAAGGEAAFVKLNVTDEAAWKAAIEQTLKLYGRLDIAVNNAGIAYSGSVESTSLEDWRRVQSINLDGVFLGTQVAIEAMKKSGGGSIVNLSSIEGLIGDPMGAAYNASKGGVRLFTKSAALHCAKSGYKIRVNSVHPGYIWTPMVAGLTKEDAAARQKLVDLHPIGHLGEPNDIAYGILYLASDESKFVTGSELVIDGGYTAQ
structure (smiles),measurement,setting,value
CC(=O)c1ccc(Cl)cc1 [4′-Chloroacetophenone],Km,[1]; co-substrate NADH,260 µM
CC(C)O [Isopropanol],Km,[2]; co-substrate NAD+,23800 µM
NC(=O)C1=CN([C@@H]2O[C@H](COP(=O)(O)OP(=O)(O)OC[C@H]3O[C@@H](n4cnc5c(N)ncnc54)[C@H](O)[C@@H]3O)[C@@H](O)[C@H]2O)C=CC1 [NADH],Km,[1]; reduction of 4'-chloroacetophenone,160 µM
NC(=O)c1ccc[n+]([C@@H]2O[C@H](COP(=O)(O)OP(=O)(O)OC[C@H]3O[C@@H](n4cnc5c(N)ncnc54)[C@H](OP(=O)(O)O)[C@@H]3O)[C@@H](O)[C@H]2O)c1 [NADP^+],Km,[3],1390 µM
NC(=O)c1ccc[n+]([C@@H]2O[C@H](COP(=O)(O)OP(=O)(O)OC[C@H]3O[C@@H](n4cnc5c(N)ncnc54)[C@H](O)[C@@H]3O)[C@@H](O)[C@H]2O)c1 [NAD^+],Km,[2]; oxidation of isopropanol,380 µM
